According to patent publication US20230219886A1, “NOVEL SELENO-NSAID ANALOGS AND USES THEREOF” (THE PENN STATE RESEARCH FOUNDATION, priority 2020, published 2023):
Entries after “also recorded” stand apart in the source; their conditions may differ. Where two headings read alike, the source gives them in different places.

Assays:
[1] = test system: PANC-1 (pancreatic carcinoma); experiment: MTT cell viability assay, Panc-1; conditions: for cell viability: 48 h
Description: (§1) Cell Culture Conditions. The cell lines were obtained from the American Type Culture Collection (ATCC). PANC-1 and Caco-2 cell lines were maintained in DMEM medium (Gibco); HT-29, HCT-116 and RKO cells were maintained in McCoy's 5A medium (Gibco); and DU-145 and H1299 cells were maintained in RPMI 1640 medium (Gibco), supplemented with 10% fetal bovine serum (FBS; Gibco) and 1% antibiotics (10.00 units/mL penicillin and 10.00 mg/mL streptomycin; Gibco). Cells were preserved in tissue culture flasks at 37° C. and 5% CO2. Culture medium was replaced every three days.
(§2) Cell Viability Assay. The effect of each compound on cell viability was tested using the MTT assay (81). Briefly, 9000 cells/well were grown in 96-well plates for 12 h. Then these cells were incubated with either DMSO (control) or nine different concentration between 0.01-50 μM of the test compounds for 24, 48, and 72 h. Three hours before the termination point, 20 μL of MTT were added to measure cellular viability. The resultant formazan crystals were dissolved in 50 μL of DMSO, and absorbance was measured at 570 nm and 630 nm wavelengths. IC50, GI50, TGI and LC50 values were calculated using OriginPro 8.5.1.
(§3) Evaluation of the antiproliferative activities of the novel molecules. […] These four cell lines were treated with each compound at three concentrations (5, 25 and 50 μM) for 48 h.

[2] = test system: NCI-H226 (non-small cell lung cancer); experiment: NCI-60 one-dose screen, NCI-H226; assay type: cell-based, human; conditions: NCI-H226, 10 μM, 48 h
Text: (§4) NCI-60 Analysis. 1a and 6a were submitted to National Cancer Institute's (NCI) Developmental Therapeutics Program (DTP) where the cytotoxicity profile was investigated across their 60 human cancer cell line panel according to the protocol available on multiple sources (71-73, 83). The COMPARE algorithm (73), was utilized to evaluate the activity profile of 6a in comparison to those of known cytotoxins established in marketed drugs and standard agent data sets in order to correlate plausible modes of action.
(§5) NCI-60 analysis. Compounds 1a, 5a and 6a were submitted to the National Cancer Institute's (NCI) Developmental Therapeutics Program (DTP). NCI-60 program consists in a panel of 60 human cancer cell lines from a variety of cancers, including refractory tumors such as lung, ovarian, CRC, breast, brain and renal cancers, and melanomas together with more treatable cancers such as leukemias (71). 1a [NSC: 803071], 5a [NSC: 820332] and 6a [NSC: 811013] were initially screened at one dose (10 μM) at 48 h. Then, NCI selected only compound 6a to perform dose-response characterization (72).

HT-29 (CRC) = experiment: MTT cell viability assay, HT-29; conditions: for CC50: read-out: LC50; for cell viability: 48 h
Description: as §1, §2, §3

HT-29 (CRC cells) = experiment: NCI-60 one-dose screen, HT-29; assay type: cell-based, human; conditions: HT-29, 10 μM, 48 h
Text: as §4, §5

BxPC3 cells [3] = experiment: Subcutaneous xenograft tumor inhibition study in athymic nude mice; assay type: in vivo
Description: (§6) The cytotoxic response of 6a on pancreatic ductal adenocarcinoma cell lines (Panc-1, MIA PaCa-2 and BxPC3) was evaluated using MTT assay. […] To determine whether the in vitro efficacy of 6a translates to in vivo models, we performed a pilot tumor inhibition study in xenograft mouse model using BxPC3 cells. Athymic nude mice were subcutaneously injected with BxPC3 cells. After two weeks, mice were injected intraperitoneally with vehicle DMSO (control) or 6a (three times a week at a dose of 4 mg/Kg in 100 μL of DMSO). Tumor size and animal weights were measured twice a week.

[4] = Systemic toxicity in xenograft mice; assay type: in vivo
Description: as §6

CNS: SF-539 = experiment: NCI-60 dose-response, SF-539; assay type: cell-based, human; conditions: SF-539, 48 h
Text: as §4, §5

LC: EKVX = experiment: NCI-60 dose-response, EKVX; assay type: cell-based, human; conditions: 48 h
Text: as §4, §5

OV: OVCAR-5 = experiment: NCI-60 dose-response, OVCAR-5; assay type: cell-based, human; conditions: OVCAR-5, most resistant cell line
Text: as §4, §5

ME: LOX IMVI = experiment: NCI-60 dose-response, LOX IMVI; assay type: cell-based, human; conditions: 48 h
Text: as §4, §5

RE: A498 = experiment: NCI-60 dose-response, A498; assay type: cell-based, human; conditions: A498, 48 h
Text: as §4, §5

[5] = test system: NCI-60 human cancer cell line panel; experiment: NCI-60 dose-response, whole panel; assay type: cell-based
Text: as §4, §5

CNS: SF-295 = experiment: NCI-60 dose-response, SF-295; assay type: cell-based, human; conditions: SF-295, 48 h
Text: as §4, §5

LC: HOP-62 = experiment: NCI-60 dose-response, HOP-62; assay type: cell-based, human; conditions: HOP-62, 48 h
Text: as §4, §5

BxPC3 cells [6] = experiment: MTT assay, pancreatic ductal adenocarcinoma cells BxPC3; assay type: cell-based
Description: as §6

[7] = Homo sapiens, PANC-1, 48 h, read-out: cell viability
[8] = Homo sapiens, HT-29, 48 h, read-out: cell viability
[9] = 4 mg/Kg i.p. three times a week
[10] = read-out: LC50 (the source's name)

For `C[Se]C(=O)c1ccccc1OC(C)=O` [Compound 1a, 2-((methylselanyl)carbonyl)phenyl acetate], the viability at 5 µM [1, 7] was 43.7 ± 12.1%, the viability at 25 µM [1, 7] was 36.9 ± 6.3% and the viability at 50 µM [1, 7] was 36.8 ± 6.8%. The “Growth percent (GP)” value [2] was less than 12%, the “increase on cytotoxic potency compared with parent NSAID scaffolds” value (HT-29 (CRC)) was “three-fold” and the TGI (HT-29 (CRC); HT-29, 24 h) was 0.5 ± 0.3 µM. For the same molecule, the TGI (HT-29 (CRC); HT-29, 48 h) was 0.2 ± 0.1 µM, the TGI (HT-29 (CRC); HT-29, 72 h) was 0.7 ± 0.3 µM and the GI50 (HT-29 (CRC); Homo sapiens, HT-29, 24 h) was 100 ± 100 nM. The IC50 (HT-29 (CRC); Homo sapiens, HT-29, 24 h) was 1900 ± 600 nM, the CC50 (HT-29 (CRC); Homo sapiens, HT-29, 24 h) was 1700 ± 1600 nM and the GI50 (HT-29 (CRC); Homo sapiens, HT-29, 48 h) was 100 ± 100 nM. It also gave an IC50 (HT-29 (CRC); Homo sapiens, HT-29, 48 h) of 1200 ± 100 nM, a CC50 (HT-29 (CRC); Homo sapiens, HT-29, 48 h) of 700 ± 100 nM and a viability at 5 µM (HT-29 (CRC); [8]) of 20.8 ± 5.6%. For the same molecule, the viability at 25 µM (HT-29 (CRC); [8]) was 18.5 ± 4.1%, the viability at 50 µM (HT-29 (CRC); [8]) was 17.7 ± 12.6% and the GI50 (HT-29 (CRC); Homo sapiens, HT-29, 72 h) was 200 ± 100 nM. For the same molecule, the IC50 (HT-29 (CRC); Homo sapiens, HT-29, 72 h) was 1200 ± 400 nM, the CC50 (HT-29 (CRC); Homo sapiens, HT-29, 72 h) was 2500 ± 1400 nM and the cytotoxicity at 5 µM (HT-29 (CRC); Homo sapiens, HT-29, read-out: inhibition in cell viability) was 75 to 80%. For the same molecule, the “Growth percent (GP)” value (HT-29 (CRC cells)) was less than 12%.
With `C[Se]C(=O)CC1=C(C)/C(=C/c2ccc([S+](C)[O-])cc2)c2ccc(F)cc21` (centres unmarked) [Compound 6a, Se-methyl (Z)-2-(5-fluoro-2-methyl-1-(4-(methylsulfinyl)benzylidene)-1H-indenyl)ethaneselenoate] the “reduction of tumor weight as compared to control mice” value (BxPC3 cells [3]; 4 mg/Kg i.p. three times a week, 22 days since start of treatment) was 42.9%, the tumor growth (BxPC3 cells [3]; 4 mg/Kg i.p., three times a week, nude mice xenograft) was “significantly inhibited; also recorded: significantly reduced” and the “alanine aminotransferase (SGPT)” value [4, 9] was 19 U/L. For the same molecule, the bilirubin toxicity [4, 9] was 0.40 mg/dL, the blood urea nitrogen [4, 9] was 23 mg/dL and the “body weight loss as compared to the control mice” value [4, 9] was “did not show any significant weight loss”. The systemic toxicity ([4]; at the dose used (4 mg/Kg)) was “no evidence of systemic toxicity”, the GI50 (CNS: SF-539) was 105 nM and the TGI (CNS: SF-539) was 275 nM. It also gave a CC50 (CNS: SF-539; [10]) of 718 nM, a GI50 (LC: EKVX) of less than 10 nM and a TGI (LC: EKVX) of 10.8 nM. The CC50 (LC: EKVX; [10]) was 861 nM, the GI50 (OV: OVCAR-5) was 47 nM and the TGI (OV: OVCAR-5) was 410 nM. For the same molecule, the CC50 (OV: OVCAR-5; [10]) was 3.9 µM, the GI50 (ME: LOX IMVI) was 14.1 nM and the LC50 (concentration giving 50% net cell kill) (ME: LOX IMVI) was 62.1 nM. For the same molecule, the TGI (ME: LOX IMVI) was 29.6 nM, the cell viability ([1]; Panc-1, 5 μM) was 49.4 ± 20.1% and the cell viability ([1]; Panc-1, 25 μM) was 29.0 ± 9.5%. The cell viability ([1]; Panc-1, 50 μM) was 21.3 ± 9.2%, the GI50 (RE: A498) was 38.8 nM and the TGI (RE: A498) was 184 nM. The CC50 (RE: A498; [10]) was 658 nM, the “cytotoxic activity towards the 6 most sensitive cells of the panel” value ([5]; LE:SR, CCRF-CEM, HCT-116, HL60, NCI-H522, MOLT-4) was “negligible” and the “activity towards the 6 most resistant cells” value ([5]; TK10, SK-MEL-28, SNB-19, SK-OV-3, NCI-H322M, OVCAR-5) was “outstanding activity”. The TGI values ([5]; in all cell lines, except for seven) was “below 12 μM”, the GI50 ([5]; in four NSCLS and two CNS cell lines) was less than 10 nM and the “increase on cytotoxic potency compared with parent NSAID scaffolds” value (HT-29 (CRC); HT-29) was “three-fold”. The cell viability (HT-29 (CRC); HT-29, 5 μM) was 22.9 ± 2.9%, the cell viability (HT-29 (CRC); HT-29, 25 μM) was 11.9 ± 6.6% and the cell viability (HT-29 (CRC); HT-29, 50 μM) was 11.1 ± 6.2%. It also gave a GI50 (HT-29 (CRC); HT-29, 24 h) of 1200 ± 1100 nM, an IC50 (HT-29 (CRC); HT-29, 24 h) of 2400 ± 300 nM and a TGI (HT-29 (CRC); HT-29, 24 h) of 9.9 ± 3.9 µM. The GI50 (HT-29 (CRC); HT-29, 48 h) was 1400 ± 700 nM, the IC50 (HT-29 (CRC); HT-29, 48 h) was 2000 ± 700 nM and the TGI (HT-29 (CRC); HT-29, 48 h) was 3.3 ± 0.3 µM. It also gave a GI50 (HT-29 (CRC); HT-29, 72 h) of 500 ± 500 nM, an IC50 (HT-29 (CRC); HT-29, 72 h) of 1400 ± 300 nM and a TGI (HT-29 (CRC); HT-29, 72 h) of 2.4 ± 0.4 µM. For the same molecule, the CC50 (HT-29 (CRC); HT-29, 24 h) was greater than 50000 nM, the CC50 (HT-29 (CRC); HT-29, 48 h) was 10100 ± 5200 nM and the CC50 (HT-29 (CRC); HT-29, 72 h) was 6300 ± 700 nM. For the same molecule, the GI50 (CNS: SF-295) was 24.2 nM, the LC50 (CNS: SF-295) was 386 nM and the TGI (CNS: SF-295) was 107 nM. It also gave a GI50 (LC: HOP-62) of less than 10 nM, an LC50 (LC: HOP-62) of 941 nM and a TGI (LC: HOP-62) of 155 nM. It also gave an IC50 (BxPC3 cells [6]) of 1000 nM.
